The test system of series [1] is Colon cancer cells (HCT116 and HT29). Briefly: MTS cell viability assay, colon cancer cells. Type of series: cell-based. The settings on record: HCT116 and HT29, 72 hours; read-out: Average IC50s across both colon cancer cell lines. From the text:
(§1) Tumour Biol 2017; 39(3):1010428317694565; Rao P C, et al., Cytotoxicity of withasteroids: withametelin induces cell cycle arrest at G2/M phase and mitochondria-mediated apoptosis in non-small cell lung cancer A549 cells. Tumour Biol 2016; 37(9):12579-87; Dinavahi S S, et al., Combined inhibition of PDE4 and PI3Kdelta modulates the inflammatory component involved in the progression of chronic obstructive pulmonary disease. Drug Res (Stuttg) 2014; 64(4):214-9). Briefly, 3,000 cells per well were plated in a 96-well plate and incubated overnight at 37° C. in a 5% CO2 atmosphere. […] 20 μL of MTS reagent was then added into each well and formation of […] was measured by absorbance after 1 hour at 492 nm. IC50 values for each experimental group were measured in 3 independent experiments using GraphPad Prism version 7.04 (GraphPad Software, La Jolla, CA).
(In general: Tetrazolium assays rely on reduction of a dye to a coloured formazan, in cell work by metabolically active cells.)

The test system of series [2] is multiple myeloma cell lines (NCIH929, U266, RPMI8226, MM.1R). Briefly: MTS cell viability assay, multiple myeloma cells. Type of series: cell-based. The settings on record: 72 hours, read-out: Average IC50s across all multiple myeloma cell lines tested.
From the text: as §1

Series [3] deals with total cellular ALDH activity, UACC 903 cell lysates. Put plainly: Total cellular ALDH activity in cell lysates, UACC 903. Type of series: cell-based, human. The settings on record: 1 uM, 15 minutes, UACC 903 and 1205 Lu cell lysates. From the text:
The ALDHs reduce ROS, lipid peroxidation and toxic aldehyde accumulation, the latter of which can lead to cell damage and apoptosis as shown in FIG. 6A. Thus, inhibition of total cellular ALDH activity can increase toxic aldehydes, oxidative damage and apoptosis.

Series [4] deals with UACC 903 and 1205 Lu cells. Put plainly: ROS assay (DCFDA), melanoma cells. Type of series: cell-based, human. The settings on record: 5 μM, 24 hours, vs DMSO.
The subject of series [5] is UACC 903 and 1205 Lu cells. Put plainly: Lipid peroxidation (TBARS), melanoma cells. Type of series: cell-based, human. The note with it: 5 μM, 24 hours, vs DMSO. The source says:
DMSO served as the vehicle control.

Series [6] addresses T1, ALDH3A1 (Homo sapiens, UniProt P30838).
T1 construct: purchased R & D Systems, Inc, Minneapolis, MN, USA
T1 sequence (P30838 1-453): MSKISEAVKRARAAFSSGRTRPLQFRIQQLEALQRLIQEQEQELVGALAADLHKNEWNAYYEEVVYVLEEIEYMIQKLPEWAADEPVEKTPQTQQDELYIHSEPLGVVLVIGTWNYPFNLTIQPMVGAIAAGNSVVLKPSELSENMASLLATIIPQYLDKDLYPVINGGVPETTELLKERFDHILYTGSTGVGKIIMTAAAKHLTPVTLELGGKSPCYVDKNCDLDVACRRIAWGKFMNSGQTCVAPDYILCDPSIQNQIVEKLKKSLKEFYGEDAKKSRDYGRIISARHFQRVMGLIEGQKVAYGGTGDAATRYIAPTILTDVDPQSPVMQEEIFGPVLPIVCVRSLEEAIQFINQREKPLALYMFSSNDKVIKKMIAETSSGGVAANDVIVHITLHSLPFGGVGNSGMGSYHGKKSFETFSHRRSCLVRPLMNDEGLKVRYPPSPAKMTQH
Briefly: ALDH isoform-specific enzyme assay, ALDH3A1 (NADH absorbance). Type of series: biochemical.
Method: (§2) ALDH enzyme assays were performed using a kit as described by the kit manufacturer (R & D Systems, Inc, Minneapolis, MN, USA). Isoform-specific aldehydes were converted to their respective carboxylic acids along with conversion of NAD+ to NADH (absorbance at 340 nm). […] Similarly, 0.5 μg/mL of ALDH2 was used in the reaction with 2 mM of acetaldehyde as the substrate and 0.2 μg/mL of ALDH3A1 was used in the reaction with 1 mM of 4-nitrobenzaldehyde (4-NBA) as the substrate following addition of ALDH inhibitors.
(§3) ALDH1A1, 2 and 3A1 enzyme assays were performed as described by the manufacturer (R & D systems). Isoform-specific aldehydes were converted to their respective carboxylic acids along with the conversion of NAD+ to NADH (absorbance at 340 nm).

Series [7] has as its system UACC 903 cells. Put plainly: MTS cell viability assay, UACC 903. Type of series: cell-based, human. The settings on record: 100 μM, 72 hours.
Method: Cell viability assays of UACC 903 cells transfected with siRNA, and melanoma cell lines (UACC 903, 1205 Lu, C8161.CI9, MelJuSo), FF2441 and NHEM cells treated with ALDH inhibitors were performed. For this, 5,000 cells per well were plated in a 96-well plate and incubated overnight at 37° C. in a 5% CO2 atmosphere. For the siRNA knockdown experiment, cells were incubated for another 72 hours. For the ALDH inhibitor experiments, cells were treated with agents at various concentrations and incubated for 72 hours. 20 μL of MTS reagent was then added into each well and formation of tetrazolium was measured by absorbance after 1 hour at 492 nm. IC50 values or % cells for each experimental group were measured in three independent experiments using GraphPad Prism version 7.04 (GraphPad Software, La Jolla, CA).
(§4) Briefly, 3,000 cells per well were plated in a 96-well plate and incubated overnight at 37° C. in a 5% CO2 atmosphere. […] 20 μL of MTS reagent was then added into each well and formation of tetrazolium was measured by absorbance after 1 hour at 492 nm. IC50 values for each experimental group were measured in 3 independent experiments using GraphPad Prism version 7.04 (GraphPad Software, La Jolla, CA).
Series [8] relates to Swiss-Webster mice. Put plainly: Toxicity study, 14 days. The note with it: 5 mg/kg/day i.p. for 14 days, vs DMSO. Type of series: in vivo, mouse. The protocol:
To determine the toxicity of 3(h-l), compounds were injected i.p. into Swiss-Webster mice once daily for 14 days (Id.). Animals were monitored for changes in body weight, behavior and physical distress compared to DMSO control.

Series [9] deals with colon cell lines (HCT116, HT29). Briefly: ROS assay (DCFDA) with or without NAC, Study 2. Type of series: cell-based.
Method: ROS activity was measured using DCFDA dye. […] Cells were incubated with 10 μM of DCFDA for 1 hour, and fluorescence was measured at 485 nm excitation and 510 nm emission. ROS levels in treated cells were compared to DMSO control.
The test system of series [10] is colon cancer cell line, HCT116. Put plainly: Cell survival MTS assay with addition of NAC. Type of series: cell-based.
Method: as §4
Series [11] has as its system HCT116 colon cancer cells. Briefly: Apoptosis by Annexin-V/7-AAD, HCT116. Type of series: cell-based. Set-up: dose or concentration left out as unconfirmed. The note with it: vs DMSO control or 3a.
Series [12] concerns colon cancer cell line HCT116. Put plainly: Cell cycle by propidium iodide staining, HCT116. Type of series: cell-based. The note with it: reversed by addition of NAC.
The test system of series [13] is HCT116 colon cancer cell line. Briefly: Lipid peroxidation and toxic aldehyde accumulation (TBARS), Study 2.
Series [14] deals with melanoma cells (UACC 903 and 1205 Lu) and normal human fibroblasts (FF2441). Put plainly: MTS cell viability assay, all the cell lines evaluated. Type of series: cell-based. The note with it: read-out: IC50s in all the cell lines evaluated.
From the text: as §1

The target in series [15] is T2, ALDH1A1 (Homo sapiens, UniProt P00352).
T2 construct: purchased R & D Systems, Inc, Minneapolis, MN, USA
T2 sequence (P00352 1-501): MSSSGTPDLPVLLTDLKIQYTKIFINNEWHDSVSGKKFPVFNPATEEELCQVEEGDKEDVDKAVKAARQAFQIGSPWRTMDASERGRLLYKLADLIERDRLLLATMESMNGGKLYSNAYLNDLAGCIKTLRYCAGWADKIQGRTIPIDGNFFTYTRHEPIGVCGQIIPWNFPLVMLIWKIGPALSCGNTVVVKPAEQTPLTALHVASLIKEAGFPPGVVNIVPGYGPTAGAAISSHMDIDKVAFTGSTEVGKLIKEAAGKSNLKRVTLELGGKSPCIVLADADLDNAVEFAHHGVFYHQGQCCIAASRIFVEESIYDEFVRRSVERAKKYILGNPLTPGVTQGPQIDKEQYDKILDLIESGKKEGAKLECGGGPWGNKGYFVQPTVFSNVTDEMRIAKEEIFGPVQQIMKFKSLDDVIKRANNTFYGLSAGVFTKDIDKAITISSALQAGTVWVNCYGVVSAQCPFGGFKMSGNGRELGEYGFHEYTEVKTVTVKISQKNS
Briefly: ALDH isoform-specific enzyme assay, ALDH1A1 (NADH absorbance). Type of series: biochemical. The note with it: read-out: IC50s ALDH1A1.
Method: as §2, §3

For series [16], the target named is T3, ALDH2 (Homo sapiens, UniProt P05091).
T3 construct: purchased R & D Systems, Inc, Minneapolis, MN, USA
T3 sequence (P05091 18-517): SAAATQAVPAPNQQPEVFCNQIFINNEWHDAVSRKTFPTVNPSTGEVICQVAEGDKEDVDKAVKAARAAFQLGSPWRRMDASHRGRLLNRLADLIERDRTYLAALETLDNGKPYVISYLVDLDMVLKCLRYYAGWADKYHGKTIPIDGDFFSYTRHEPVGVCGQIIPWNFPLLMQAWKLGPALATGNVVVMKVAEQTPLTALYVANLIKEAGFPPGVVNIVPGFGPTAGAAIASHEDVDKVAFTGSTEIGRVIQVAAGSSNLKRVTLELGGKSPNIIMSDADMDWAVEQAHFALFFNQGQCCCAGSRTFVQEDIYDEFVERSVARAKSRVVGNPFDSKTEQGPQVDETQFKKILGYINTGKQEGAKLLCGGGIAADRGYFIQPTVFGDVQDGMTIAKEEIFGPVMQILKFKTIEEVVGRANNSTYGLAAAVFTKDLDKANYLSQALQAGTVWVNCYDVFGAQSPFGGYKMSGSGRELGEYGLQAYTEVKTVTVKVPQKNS
Put plainly: ALDH isoform-specific enzyme assay, ALDH2 (NADH absorbance). The settings on record: read-out: IC50s ALDH2. Type of series: biochemical.
Method: as §2, §3

Structures can show the parent of a compound that is named as a salt. Where two headings read alike, the source gives them in different places.

`N=C(N)SCc1ccc(CN2C(=O)C(=O)c3cc(Cl)cc(Cl)c32)cc1` [Compound 3k, 2-[4-(5,7-Dichloro-2,3-dioxo-2,3-dihydroindol-1-ylmethyl)benzyl]isothiourea hydrobromide]: the IC50 in series [1] was 2.9 µM; in series [2] it was 1600 nM.
With `CCOC(=O)CSc1nc2c(sc3ccccc32)c(=O)n1CCCN1CCCC1` [CM037], the “effect on total cellular ALDH activity” value in [3] is listed as “significantly reduced”. Further, the ROS levels entry in [4] is recorded as “significantly increased ROS levels”. In addition, the “lipid peroxidation and toxic aldehyde accumulation” value in [5] is “significantly increased lipid peroxidation and toxic aldehyde accumulation”.
As for `CCN(CC)c1ccc(C=O)cc1` [DEAB], the IC50 was 15.1 µM in [6] (as rounded in text, read-out: IC50 ALDH3A1) and 15.1 µM in series [6] (read-out: IC50s ALDH3A1). Also, in series [7], the “reduction of UACC 903 cell survival” value amounted to 30%. In series [3], the “effect on total cellular ALDH activity” value is given as “significantly reduced”. Besides, the ROS levels entry in series [4] is listed as “significantly increased ROS levels”. Moreover, the “lipid peroxidation and toxic aldehyde accumulation” value in series [5] is “significantly increased lipid peroxidation and toxic aldehyde accumulation”.
In general, inhibition refers to the relative decrease from the control value, in per cent. For `N=C(N)[Se]Cc1ccc(CN2C(=O)C(=O)c3cc(Br)ccc32)cc1` [Compound 4b, 2-[4-(5-Bromo-2,3-dioxo-2,3-dihydroindol-1-ylmethyl)benzyl]isoselenourea hydrobromide], the inhibition at 0.5 µM in series [6] (read-out: % inhibition of ALDH3A1) is not below 60%.
Regarding `O=C1Nc2ccccc2C1=O` [Isatin], the “effect on total cellular ALDH activity” value in series [3] is reported as “ineffective”.
As for `Br.N=C(N)SCc1ccc(CN2C(=O)C(=O)c3cc(C(F)(F)F)ccc32)cc1` [Compound 3h, 2-[4-(2,3-Dioxo-5-trifluoromethyl-2,3-dihydroindol-1-ylmethyl)benzyl]isothiourea hydrobromide], the figures for the IC50 in [1] and in series [2] were 5.3 µM and 1900 nM, respectively. For the same molecule, in [8], the weight loss entry is listed as “no significant weight loss”. Also, the ROS levels entry in series [9] (5 μM, 24 hours, vs DMSO) was “significantly increased ROS levels”. Moreover, the “ROS-inducing activity on addition of N-Acetyl Cysteine (NAC)” value in [9] (with NAC) is listed as “abrogated”. Besides, the “increase of cell killing IC50 on addition of NAC” value in series [10] was 6 fold. Further, the “percentage of cells both Annexin-V and 7-AAD positive” value in series [11] was “significantly higher”. For the same molecule, the cell cycle effect entry in series [12] is “G2/M arrest”. Further, the “lipid peroxidation and toxic aldehyde accumulation” value in series [13] (5 μM, 24 hours, vs DMSO) was “significantly increased”. Also, the “lipid peroxidation effect on addition of NAC” value in [13] (with NAC) was “abrogated”.
For the molecule `O=C1C(=O)N(Cc2ccccc2)c2ccccc21` [Cpd 3], the IC50 in [14] is more than 100 µM.
As to `Cc1nc2ccccc2n1S(=O)(=O)c1ccc(F)cc1` [CB7], the IC50 was found to be 139 µM in [15] and 144 µM in series [16].

These data come from patent US12616678B2, “Methods to of aldehyde dehydrogenases for treatment of cancer” (THE PENN STATE RESEARCH FOUNDATION, priority 2020, dated 2026).
